Results: patent US20250066363A1, “Bicyclic DGK Inhibitors” (Incyte Corporation, priority 2023, published 2025)

How the values were obtained:
[1] = target: DGKα (Homo sapiens (Human), UniProt P23743); assay: In vitro DGKα inhibition assay (ADP-Glo); type: biochemical; details: first column of Table A
Protocol: (§1) The DGKα and DGKζ biochemical reactions were performed using His-tagged human recombinant enzymes (Signal Chem, DGKα, #D21-10BH; DGKζ, #D30-1OH)) and DLG (Dilauroyl-sn-glycerol) lipid substrate (Signal Chem, #D430-59). ADP-Glo assay was performed using ADP-Glo™ kinase Assay kit (Promega, #V9104). The reactions were carried out in assay buffer containing 40 mM Tris, pH 7.5, 0.1% CHAPS, 0.1% Prionex, 40 mM NaCl, 5 mM MgCl2, 1 mM CaCl2, and 1 mM DTT. DGKα reactions contained 0.1 nM DGKα, 50 μM ATP, and 20 μM DLG. And DGKζ reactions contained 0.4 nM DGKζ, 30 μM ATP, and 20 μM DLG.
(§2) For compound inhibition studies, 40 nL test compound in DMSO was added to wells of white polystyrene plates in 384-well (Greiner, #784075) or 1536-well format (Greiner, #782075). Compounds were added with top concentration of 2 mM with 11 point, 3-fold dilution series. Enzyme solution (contains 2× DGK enzyme concentration in 1× assay buffer) was added to the plate in 2 μL/well volume, followed by 2 μL/well of substrate solution (contains 2× concentration of ATP and DLG substrate in 1× assay buffer). Plates were then centrifuged for 1 min at 1200 RPM and sealed or lidded. For 4 μL reaction volume, test compounds were therefore diluted 100× to final top concentration of 20 μM. After 90 minute incubation, reactions were quenched by addition of 2 μL/well Promega ADP-Glo Reagent, followed by centrifugation and lidding. After 60 min incubation, 2 μL/well Promega Kinase Detection Reagent was added, plates centrifuged, and incubated for 30 min. Plates were then read using Luminescence method on BMG PHERAstar FSX plate reader. Percent inhibition was calculated and IC50s were determined using 4-parameter fit in Genedata Screener. Labcyte Echo acoustic dispenser was used for compound addition, and Formulatrix Tempest liquid handler was used for all reagent dispenses.

[2] = target: DGKζ (Homo sapiens (Human), UniProt Q13574); assay: In vitro DGKζ inhibition assay (ADP-Glo); type: biochemical; details: second column of Table A, head printed DGKα, presumably DGKζ; His-tagged human recombinant DGKζ 0.4 nM, 30 μM ATP, 20 μM DLG
Protocol: as §1, §2

[3] = His-tagged human recombinant DGKα 0.1 nM, 50 μM ATP, 20 μM DLG

Chain of DGKα (P23743 whole entry): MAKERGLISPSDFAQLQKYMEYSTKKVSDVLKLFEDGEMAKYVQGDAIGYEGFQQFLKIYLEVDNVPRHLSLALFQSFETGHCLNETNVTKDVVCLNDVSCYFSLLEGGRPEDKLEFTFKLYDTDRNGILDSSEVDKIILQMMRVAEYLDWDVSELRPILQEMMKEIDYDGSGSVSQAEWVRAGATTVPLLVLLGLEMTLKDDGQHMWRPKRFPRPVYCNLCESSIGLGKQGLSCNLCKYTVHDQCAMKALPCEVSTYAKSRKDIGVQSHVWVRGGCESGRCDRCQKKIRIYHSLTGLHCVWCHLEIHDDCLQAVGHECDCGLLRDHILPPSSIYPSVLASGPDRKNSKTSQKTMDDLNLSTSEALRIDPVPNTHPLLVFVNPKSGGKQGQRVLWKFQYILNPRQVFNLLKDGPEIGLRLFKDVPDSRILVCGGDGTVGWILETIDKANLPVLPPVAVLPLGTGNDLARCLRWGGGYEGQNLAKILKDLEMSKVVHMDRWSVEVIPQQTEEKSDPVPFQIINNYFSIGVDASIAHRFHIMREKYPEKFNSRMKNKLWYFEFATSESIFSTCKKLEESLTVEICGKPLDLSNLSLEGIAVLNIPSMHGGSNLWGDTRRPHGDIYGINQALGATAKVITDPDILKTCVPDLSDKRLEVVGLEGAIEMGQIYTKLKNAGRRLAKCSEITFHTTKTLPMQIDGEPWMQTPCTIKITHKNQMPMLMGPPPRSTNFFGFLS
Chain of DGKζ (Q13574 whole entry): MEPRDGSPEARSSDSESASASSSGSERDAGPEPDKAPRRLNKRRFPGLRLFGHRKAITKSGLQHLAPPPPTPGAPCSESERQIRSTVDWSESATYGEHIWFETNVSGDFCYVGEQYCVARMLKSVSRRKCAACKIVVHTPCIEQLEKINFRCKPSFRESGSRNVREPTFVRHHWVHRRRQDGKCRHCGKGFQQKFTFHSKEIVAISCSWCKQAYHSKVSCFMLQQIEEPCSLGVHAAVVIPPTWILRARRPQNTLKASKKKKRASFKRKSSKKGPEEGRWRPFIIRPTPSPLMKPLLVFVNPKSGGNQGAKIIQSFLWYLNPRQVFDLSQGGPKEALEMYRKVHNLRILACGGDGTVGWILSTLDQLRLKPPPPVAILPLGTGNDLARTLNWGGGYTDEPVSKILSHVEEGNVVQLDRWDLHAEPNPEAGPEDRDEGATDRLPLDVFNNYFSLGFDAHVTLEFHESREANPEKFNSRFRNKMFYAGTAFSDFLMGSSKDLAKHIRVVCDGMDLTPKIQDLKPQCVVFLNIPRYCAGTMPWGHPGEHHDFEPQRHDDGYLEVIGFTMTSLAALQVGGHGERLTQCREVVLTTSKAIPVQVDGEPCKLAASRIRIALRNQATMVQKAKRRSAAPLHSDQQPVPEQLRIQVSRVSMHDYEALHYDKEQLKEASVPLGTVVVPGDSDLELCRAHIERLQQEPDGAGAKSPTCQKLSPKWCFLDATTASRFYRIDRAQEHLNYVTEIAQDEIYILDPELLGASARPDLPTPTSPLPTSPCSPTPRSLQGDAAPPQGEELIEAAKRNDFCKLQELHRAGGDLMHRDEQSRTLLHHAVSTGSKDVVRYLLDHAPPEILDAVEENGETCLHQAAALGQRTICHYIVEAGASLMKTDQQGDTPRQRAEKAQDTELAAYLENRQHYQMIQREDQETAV

SMILES | IC50 [1, 3] | IC50 [2] | IC50 ([1]; cell prints a figure instead of a class symbol (possibly a misprint of +))
Cc1nc2c(N3C[C@@H](C)N(C(c4ccc(C(F)(F)F)cc4)C4CC(F)(F)C4)C[C@@H]3C)cc(=O)n(C)c2n1C[C@@H]1CCCO1 (stereo partly drawn) [Example 40, 7-((2S,5R)-4-((3,3-Difluorocyclobutyl)(4-(trifluoromethyl)phenyl)methyl)-2,5-dimethylpiperazin-1-yl)-2,4-dimethyl-3-(((S)-tetrahydrofuran-2-yl)methyl)-3,4-dihydro-5H-imidazo[4,5-b]pyridin-5-one] | ≤ 100 nM | ≤ 100 nM | –
Cc1nc2c(N3C[C@@H](CO)N(C(c4ccc(C(F)(F)F)cc4)C4CC(F)(F)C4)C[C@@H]3C)nc(=O)n(C)c2n1C[C@@H]1CCCO1 (stereo partly drawn) [Example 41, 6-((2S,5S)-4-((3,3-Difluorocyclobutyl)(4-(trifluoromethyl)phenyl)methyl)-5-(hydroxymethyl)-2-methylpiperazin-1-yl)-3,8-dimethyl-9-(((S)-tetrahydrofuran-2-yl)methyl)-3,9-dihydro-2H-purin-2-one] | – | ≤ 10 nM | 1 nM
C[C@@H]1CN(c2nc(=O)n(C)c3c2nnn3C[C@H]2CCCO2)[C@@H](C)CN1C(c1ccc(C(F)(F)F)cc1)C1CC(F)(F)C1 (stereo partly drawn) [Example 43, 7-((2S,5R)-4-((3,3-Difluorocyclobutyl)(4-(trifluoromethyl)phenyl)methyl)-2,5-dimethylpiperazin-1-yl)-4-methyl-3-(((R)-tetrahydrofuran-2-yl)methyl)-3,4-dihydro-5H-[1,2,3]triazolo[4,5-d]pyrimidin-5-one] | ≤ 10 nM | ≤ 10 nM | –
CC[C@@H]1CN(c2nc(=O)n(C)c3c2nnn3C[C@H]2CCCO2)[C@@H](C)CN1C(c1ccc(C(F)(F)F)cc1)C1CC(F)(F)C1 (stereo partly drawn) [Example 44, 7-((2S,5R)-4-((3,3-Difluorocyclobutyl)(4-(trifluoromethyl)phenyl)methyl)-5-ethyl-2-methylpiperazin-1-yl)-4-methyl-3-(((R)-tetrahydrofuran-2-yl)methyl)-3,4-dihydro-5H-[1,2,3]triazolo[4,5-d]pyrimidin-5-one] | ≤ 10 nM | ≤ 10 nM | –
CC[C@@H]1CN(c2nc(=O)n(C)c3c2nnn3C[C@H]2CCCO2)[C@@H](C)CN1C(c1ccc(Cl)cc1)C1CC(F)(F)C1 (stereo partly drawn) [Example 45, 7-((2S,5R)-4-((4-Chlorophenyl)(3,3-difluorocyclobutyl)methyl)-5-ethyl-2-methylpiperazin-1-yl)-4-methyl-3-(((R)-tetrahydrofuran-2-yl)methyl)-3,4-dihydro-5H-[1,2,3]triazolo[4,5-d]pyrimidin-5-one] | ≤ 10 nM | ≤ 10 nM | –
Cc1nc2c(N3C[C@@H](C)N([C@H](c4ccc5cc(F)ccc5n4)C(C)C)C[C@@H]3C)nc(=O)n(C)c2n1C[C@@H]1CCCO1 [Example 47, 6-((2S,5R)-4-((S)-1-(6-Fluoroquinolin-2-yl)-2-methylpropyl)-2,5-dimethylpiperazin-1-yl)-3,8-dimethyl-9-(((S)-tetrahydrofuran-2-yl)methyl)-3,9-dihydro-2H-purin-2-one] | ≤ 10 nM | ≤ 10 nM | –
Cc1nc2c(N3C[C@@H](C)N([C@@H](c4ccc5cc(F)ccc5n4)C(C)C)C[C@@H]3C)nc(=O)n(C)c2n1C[C@@H]1CCCO1 [Example 48, 6-((2S,5R)-4-((R)-1-(6-fluoroquinolin-2-yl)-2-methylpropyl)-2,5-dimethylpiperazin-1-yl)-3,8-dimethyl-9-(((S)-tetrahydrofuran-2-yl)methyl)-3,9-dihydro-2H-purin-2-one] | ≤ 10 nM | ≤ 10 nM | –
CC(C)[C@@H](c1ccc(Cl)cc1)N1C[C@H](C)N(c2nc(=O)n(C)c3c2ncn3CC2(O)CCCC2)C[C@H]1C [Example 57, 6-((2S,5R)-4-((S)-1-(4-Chlorophenyl)-2-methylpropyl)-2,5-dimethylpiperazin-1-yl)-9-((1-hydroxycyclopentyl)methyl)-3-methyl-3,9-dihydro-2H-purin-2-on] | ≤ 10 nM | ≤ 10 nM | –
CC(C)[C@H](c1ccc(Cl)cc1)N1C[C@H](C)N(c2nc(=O)n(C)c3c2ncn3CC2(O)CCCC2)C[C@H]1C [Example 58, 6-((2S,5R)-4-((R)-1-(4-chlorophenyl)-2-methylpropyl)-2,5-dimethylpiperazin-1-yl)-9-((1-hydroxycyclopentyl)methyl)-3-methyl-3,9-dihydro-2H-purin-2-one] | ≤ 10 nM | ≤ 10 nM | –

Results, then the molecule that gave them:

IC50 [1, 3] | IC50 [2] | IC50 ([1]; cell prints a figure instead of a class symbol (possibly a misprint of +)) | SMILES
≤ 10 nM | ≤ 10 nM | – | Cc1nc2c(N3C[C@@H](C)N([C@@H](c4ccc5ccc(C(F)(F)F)cc5n4)C(C)C)C[C@@H]3C)nc(=O)n(C)c2n1C[C@@H]1CCCO1 [Example 49, 6-((2S,5R)-2,5-Dimethyl-4-((R)-2-methyl-1-(7-(trifluoromethyl)quinolin-2-yl)propyl)piperazin-1-yl)-3,8-dimethyl-9-(((S)-tetrahydrofuran-2-yl)methyl)-3,9-dihydro-2H-purin-2-one]
≤ 10 nM | ≤ 10 nM | – | Cc1nc2c(N3C[C@@H](C)N([C@H](c4ccc5ccc(C(F)(F)F)cc5n4)C(C)C)C[C@@H]3C)nc(=O)n(C)c2n1C[C@@H]1CCCO1 [Example 50, 6-((2S,5R)-2,5-dimethyl-4-((S)-2-methyl-1-(7-(trifluoromethyl)quinolin-2-yl)propyl)piperazin-1-yl)-3,8-dimethyl-9-(((S)-tetrahydrofuran-2-yl)methyl)-3,9-dihydro-2H-purin-2-one]
≤ 10 nM | ≤ 10 nM | – | Cc1nc2c(N3C[C@@H](C)N([C@H](c4ccc(C(F)(F)F)cc4F)C(C)C)C[C@@H]3C)nc(=O)n(C)c2n1C[C@@H]1CCCO1 [Example 51, 6-((2S,5R)-4-((S)-1-(2-Fluoro-4-(trifluoromethyl)phenyl)-2-methylpropyl)-2,5-dimethylpiperazin-1-yl)-3,8-dimethyl-9-(((S)-tetrahydrofuran-2-yl)methyl)-3,9-dihydro-2H-purin-2-one]
≤ 10 nM | ≤ 10 nM | – | Cc1nc2c(N3C[C@@H](C)N([C@@H](c4ccc(C(F)(F)F)cc4F)C(C)C)C[C@@H]3C)nc(=O)n(C)c2n1C[C@@H]1CCCO1 [Example 52, 6-((2S,5R)-4-((R)-1-(2-Fluoro-4-(trifluoromethyl)phenyl)-2-methylpropyl)-2,5-dimethylpiperazin-1-yl)-3,8-dimethyl-9-(((S)-tetrahydrofuran-2-yl)methyl)-3,9-dihydro-2H-purin-2-one]
≤ 100 nM | ≤ 100 nM | – | Cc1nc2c(N3C[C@@H](C)N([C@H](c4ccc(C(F)(F)F)cc4)C(C)C)C[C@@H]3C)nc(=O)n(C)c2n1C[C@@H]1CCCO1 [Example 53, 6-((2S,5R)-2,5-Dimethyl-4-((S)-2-methyl-1-(4-(trifluoromethyl)phenyl)propyl)piperazin-1-yl)-3,8-dimethyl-9-(((S)-tetrahydrofuran-2-yl)methyl)-3,9-dihydro-2H-purin-2-one]
≤ 10 nM | ≤ 10 nM | – | Cc1nc2c(N3C[C@@H](C)N([C@@H](c4ccc(C(F)(F)F)cc4)C(C)C)C[C@@H]3C)nc(=O)n(C)c2n1C[C@@H]1CCCO1 [Example 54, 6-((2S,5R)-2,5-dimethyl-4-((R)-2-methyl-1-(4-(trifluoromethyl)phenyl)propyl)piperazin-1-yl)-3,8-dimethyl-9-(((S)-tetrahydrofuran-2-yl)methyl)-3,9-dihydro-2H-purin-2-one]
≤ 10 nM | ≤ 10 nM | – | Cc1nc2c(N3C[C@@H](C)N([C@H](c4ccc(C(F)F)c(F)c4)C(C)C)C[C@@H]3C)nc(=O)n(C)c2n1C[C@@H]1CCCO1 [Example 55, 6-((2S,5R)-4-((S)-1-(4-(Difluoromethyl)-3-fluorophenyl)-2-methylpropyl)-2,5-dimethylpiperazin-1-yl)-3,8-dimethyl-9-(((S)-tetrahydrofuran-2-yl)methyl)-3,9-dihydro-2H-purin-2-one]
≤ 10 nM | ≤ 10 nM | – | Cc1nc2c(N3C[C@@H](C)N([C@@H](c4ccc(C(F)F)c(F)c4)C(C)C)C[C@@H]3C)nc(=O)n(C)c2n1C[C@@H]1CCCO1 [Example 56, 6-((2S,5R)-4-((R)-1-(4-(difluoromethyl)-3-fluorophenyl)-2-methylpropyl)-2,5-dimethylpiperazin-1-yl)-3,8-dimethyl-9-(((S)-tetrahydrofuran-2-yl)methyl)-3,9-dihydro-2H-purin-2-one]
≤ 10 nM | ≤ 10 nM | – | CC[C@@H]1CN(c2nc(=O)n(C)c3c2nc(C)n3C[C@@H]2CCCO2)[C@@H](C)CN1[C@H](c1ccc(C(F)(F)F)cc1)C(C)C [Example 59, 6-((2S,5R)-5-Ethyl-2-methyl-4-((S)-2-methyl-1-(4-(trifluoromethyl)phenyl)propyl)piperazin-1-yl)-3,8-dimethyl-9-(((S)-tetrahydrofuran-2-yl)methyl)-3,9-dihydro-2H-purin-2-one]
